In paper PMC12624906, “Discovery of benzyl carbamate inhibitors of coronavirus M^pro enzymes from a legacy collection of cysteine protease inhibitors” (Journal of Enzyme Inhibition and Medicinal Chemistry, 2025):
Several values for one entry are separate records, joined by “and”; a condition that tells them apart may be missing. Equal entries are not always repeated. Where two headings read alike, the source gives them in different places.

Assays:
[1] = target: SARS-CoV-2 PL^pro (Severe acute respiratory syndrome coronavirus 2, UniProt P0DTD1); test: biochemical; settings: 15-min pre-incubation, one assay in triplicate (n = 3), mean ± SE
[2] = in vitro; settings: green monkey
[3] = target: T1, SARS-CoV-2 M^pro (Severe acute respiratory syndrome coronavirus 2, UniProt P0DTD1); test: biochemical; type: biochemical; settings: for IC50: 15-min pre-incubation, two independent assays in triplicate (n = 6)
[4] = target: MERS-CoV M^pro (Middle East respiratory syndrome-related coronavirus, UniProt K9N7C7); test: biochemical; type: biochemical; settings: for IC50: n = 6
[5] = target: T1, SARS-CoV-2 M^pro; test: biochemical; type: biochemical; settings: for fold decrease in IC50 with 15-min pre-incubation vs without: SARS-CoV-2 M^pro, 15-min vs 0-min pre-incubation
[6] = target: T1, SARS-CoV-2 M^pro; type: biochemical; settings: pre-incubated 30 min at 10-fold IC50 with 100× enzyme, diluted 100-fold to 0.1-fold IC50; monitored 2 h
[7] = in vitro; settings: mouse
[8] = target: SARS-CoV M^pro (Severe acute respiratory syndrome coronavirus, UniProt P0C6X7); test: biochemical; type: biochemical; settings: for IC50: n = 6
[9] = target: T2, human cathepsin L (hCatL) (Homo sapiens, UniProt P07711); test: hCatL inhibition assay (Z-Phe-Arg-AMC); type: biochemical; settings: 15-min pre-incubation; pH 5.5; n = 6
T2 construct: purchased R&D Systems 952-CY-010

[10] = target: T1, SARS-CoV-2 M^pro; test: biochemical; settings: compound at 10 μM, 15-min pre-incubation, relative to DMSO control, mean ± SE; for % inhibition of SARS-CoV-2 M^pro activity: 10 µM
[11] = target: T2, human cathepsin L (hCatL); design: method as in PMID 37435731; settings: E-64 data reported previously; cited from earlier work
[12] = test system: Vero cells; design: method as in PMID 38194508; settings: ribavirin data reported previously; cited from earlier work
[13] = test system: L929 cells; design: method as in PMID 39072124; settings: ribavirin data reported previously; cited from earlier work
[14] = 15-min pre-incubation before substrate, value per independent assay (Figure 3, black), read-out: IC50 SARS-CoV-2 M^pro, 15-min pre-incubation
[15] = 30-min pre-incubation before substrate, value per independent assay (Figure 3, violet), read-out: IC50 SARS-CoV-2 M^pro, 30-min pre-incubation
[16] = no pre-incubation before substrate, value per independent assay (Figure 3, teal), read-out: IC50 SARS-CoV-2 M^pro, 0-min pre-incubation

Sequence of MERS-CoV M^pro (K9N7C7 3248-3553 limits assumed): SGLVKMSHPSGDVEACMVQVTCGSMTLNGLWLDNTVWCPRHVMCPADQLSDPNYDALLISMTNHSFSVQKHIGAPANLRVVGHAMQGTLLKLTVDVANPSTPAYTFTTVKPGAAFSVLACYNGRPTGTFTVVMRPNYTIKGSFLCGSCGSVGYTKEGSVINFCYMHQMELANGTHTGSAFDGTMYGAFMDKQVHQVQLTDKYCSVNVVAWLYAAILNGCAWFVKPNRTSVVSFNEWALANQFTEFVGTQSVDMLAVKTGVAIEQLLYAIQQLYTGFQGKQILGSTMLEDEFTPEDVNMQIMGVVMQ
T2 sequence (P07711 114-333): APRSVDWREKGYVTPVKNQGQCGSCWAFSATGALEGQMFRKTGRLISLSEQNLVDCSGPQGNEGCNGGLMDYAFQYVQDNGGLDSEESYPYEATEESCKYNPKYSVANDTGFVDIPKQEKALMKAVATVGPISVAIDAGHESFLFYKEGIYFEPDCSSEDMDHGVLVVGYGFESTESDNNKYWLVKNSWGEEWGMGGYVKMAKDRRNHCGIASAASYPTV

| SMILES | inhibition at 10 µM [1] | CC50 at 48 h [2] | IC50 [3] | IC50 [4] | IC50 [5, 14] | IC50 [5, 15] | fold decrease in IC50 with 15-min pre-incubation vs without [5] | IC50 [5, 16] | inhibition after rapid dilution (reversibility) [6] | CC50 at 48 h [7] | IC50 [8] | IC50 [9] | inhibition at 10 µM [10] | further results |
| --- | --- | --- | --- | --- | --- | --- | --- | --- | --- | --- | --- | --- | --- | --- |
| COC(=O)/C=C/C(=O)[C@@H](C)NC(=O)[C@H](Cc1ccccc1)NC(=O)OCc1ccccc1 [Compound 1a] | 0% | 17200 ± 500 nM | 415 ± 18 nM | 3790 ± 640 nM | 433 nM and 397 nM | 249 nM and 301 nM | ~2 fold | 1020 nM and 1160 nM | reversible inhibition | 73500 ± 4340 nM | 699 ± 12.5 nM | 319 ± 1 nM | > 95% | % inhibition of SARS-CoV-2 M^pro activity [10]: 96.75 ± 1.04% |
| O=C(NC(CCc1ccccc1)C(O)c1cc1=O)C(Cc1ccccc1)NC(=O)N1CCOCC1 (centres unmarked) [Compound 2a] | 5.2 ± 1.23% |  | 8120 ± 40 nM | > 10000 nM |  |  |  |  |  |  | > 10000 nM | 184 ± 3 nM | 54 ± 1.34% |  |
| CCOC(=O)C1CCN(C(=O)N[C@@H](CC(C)C)C(=O)N[C@@H](/C=C/S(=O)(=O)c2ccccc2)COc2ccccc2)CC1 [Compound 3a] | 1.84 ± 2.85% |  | 16420 ± 90 nM | > 10000 nM |  |  |  |  |  |  | > 10000 nM | 763 ± 79 nM | 51.5 ± 1.38% |  |
| O=C(N[C@H](CCc1ccccc1)C(=O)CS(=O)(=O)c1ccccc1)[C@H](Cc1ccccc1)NC(=O)N1CCOCC1 [Compound 4a] | 1.56 ± 4.68% |  | 8720 ± 540 nM | > 10000 nM |  |  |  |  |  |  | > 10000 nM | 10700 ± 240 nM | 52.5 ± 3.61% |  |
| C=CC(=O)[C@@H](C)NC(=O)[C@@H](Cc1ccccc1)NC(=O)OCc1ccccc1 [Compound 5a] | 6.14 ± 2.42% | 49000 ± 3280 nM | 160 ± 5.8 nM | 830 ± 53.5 nM | 154 nM and 166 nM | 103 nM and 115 nM | ~4 fold | 757 nM and 708 nM | reversible inhibition | 102000 ± 2060 nM | 110 ± 17.3 nM | > 10000 nM | > 95% | fold decrease in activity against MERS-CoV M^pro compared to SARS-related M^pro enzymes [4]: ~5 fold; IC50 hCatL [9]: inactive; % inhibition of SARS-CoV-2 M^pro activity [10]: 100.00 ± 0.00% |
| C=CC(=O)[C@H](C)NC(=O)[C@@H](Cc1ccccc1)NC(=O)OCc1ccccc1 [Compound 5b] |  | 37500 ± 2140 nM | 128 ± 6 nM |  | 134 nM and 122 nM | 114 nM and 111 nM | ~4 fold | 639 nM and 707 nM | reversible inhibition | 85900 ± 1690 nM | 73 nM and 73.2 nM | > 10000 nM | 100% | fold less potent than nirmatrelvir, SARS-CoV-2 M^pro IC50 [3]: approximately 7 fold; fold greater IC50 than nirmatrelvir, SARS-CoV M^pro [8]: 2.4 fold; IC50 hCatL [9]: inactive |
| CC(C)C[C@H](NC(=O)[C@H]1O[C@@H]1C(=O)O)C(=O)NCCCCN=C(N)N [Compound E-64] |  |  |  |  |  |  |  |  |  |  |  |  |  | IC50 [11]: 8 ± 1 nM |
| NC(=O)c1ncn([C@@H]2O[C@H](CO)[C@@H](O)[C@H]2O)n1 [Ribavirin, ribavirin] |  |  |  |  |  |  |  |  |  |  |  |  |  | CC50 [12]: > 100000 nM; CC50 [13]: > 100000 nM |
